Data: patent US10548911B2, “Small molecule anti-scarring agents” (UNIVERSITY OF ROCHESTER, priority 2014, dated 2020)
Entries after “also recorded” stand apart in the source; their conditions may differ.

Columns and labels:
[1] = tested on: TGFβ-induced luciferase activity; assay: Spectrum collection small molecule screen with TGFβ-dependent SBE-luciferase HEK293FT reporter cell line; assay type: cell-based, human; conditions: HEK293FT-luc reporter line
From the text: The minimal thymidine kinase promoter was amplified by PCR with the following forward and reverse primers, of which the forward primer contained four tandem Smad binding elements (SBE):
Restriction sites in the primers are underlined. The resultant PCR product was TOPO cloned (Invitrogen) and the correct insert was verified by DNA sequencing. The construct was digested with SacI-HindIII and the SBEx4-TK insert was purified and ligated with the pGL4.15 vector (Promega). Clones were verified by restriction digest and then tested for TGFβ responsiveness in transient transfections of 293FT cells. […] Clones were selected by treatment with 200 μg/ml hygromycin. 20 clones were selected and screened for TGFβ-induced luciferase activity. One clone that was robustly responsive was subsequently used in the small molecule screen.
Excessive scarring results from the formation of too many myofibroblasts and the production of too much extracellular matrix material such as collagen. Since TGFβ drives the formation of myofibroblasts in part through activating the Smad pathway, a reporter construct was designed to serve as a measure of TGFβ-induced Smad activity (FIG. 1A). Four tandem Smad binding elements (SBE) were inserted upstream of the minimal thymidine kinase promoter. The SBEx4-TK promoter was inserted into the pGL4.15 vector which contains a destabilized firefly luciferase gene and the hygromycin resistance gene. The pSBEx4-TK-luc-Hygro plasmid was then introduced into HEK293FT cells by lipofection. Stable clones were generated and screened for TGFβ induced luciferase activity. One clone was selected that consistently gave a 15 to 20-fold induction of luciferase activity when cells were treated with TGFβ for 24 hours (FIG. 1B).
To find compounds that inhibit TGFβ activity and thus may be novel anti-scarring compounds, the Spectrum collection of 2,300 small molecules was screened with the cell line. […] Salinomycin, an antibiotic produced from Streptomyces albus is used as coccidiostat agent in animal feed (Knirschova et al., “Multiple regulatory genes in the salinomycin biosynthetic gene cluster of Streptomyces albus CCM 4719,” Folia Microbiologica 52:359-365 (2007), which is hereby incorporated by reference in its entirety). […] Thus, further investigation was made to assess the use of salinomycin as an anti-scarring agent.

[2] = tested on: TGFβ-induced myofibroblast formation in human fibroblasts; assay: Western blot of myofibroblast markers αSMA and calponin in TGFβ-treated human (TED orbital) fibroblasts; assay type: cell-based; conditions: for expression of αSMA and calponin: TGFβ; for expression of αSMA and calponin, dose dependence: 10-250 nM
Protocol: TED fibroblasts were treated with TGFβ (1 ng/ml) in the presence or absence of 10-250 nM salinomycin for 72 hours to allow formation of myofibroblasts. After 72 hours, cells were harvested and analyzed by Western blot. As expected, the fibroblasts robustly responded to TGFβ, expressing high levels of αSMA and calponin (FIG. 2A). […] At 50 nM salinomycin, expression of αSMA was reduced by 4-fold over TGFβ treatment alone. Furthermore, at 250 nM salinomycin, αSMA expression was reduced by approximately 16-fold, to levels at or below untreated fibroblasts. […] Another key role of myofibroblasts in scar formation is the production of collagen. Whether salinomycin could block myofibroblast collagen production was assessed. Cells were treated with TGFβ and salinomycin as above and after 72 hours, culture medium was collected and analyzed for collagen levels using a specific collagen I antibody and slot blot analysis.
To test these four compounds, human fibroblasts were treated with TGFβ in the absence or presence of 250 nM of either salinomycin, narasin, clioquinol or monensin for 72 hours. After treatment, cell lysates were harvested and analyzed for the presence of the myofibroblast markers, αSMA and calponin (FIG. 3B).

phospho-p38 = assay: Western blot of phospho-p38 in TGFβ-treated human orbital fibroblasts; assay type: cell-based; conditions: for reduction of phospho-p38 levels: 250 nM
Protocol: Therefore, activity of another signaling molecule that is involved in myofibroblast formation, namely the mitogen-activated protein kinase (MAPK), p38, was measured to assess its potential role in the observed results. P38 MAPKs are a class of protein kinases that respond to TGFβ, ultraviolet radiation and other stimuli. Phosphorylation and activation of p38 can lead to numerous downstream signaling pathways, including phosphorylation of Smad proteins.
To further test if salinomycin targets the p38 pathway to block myofibroblast formation, a plasmid encoding a mutant MKK6 (pcDNA3-flag MKK6(glu)) protein was used. MKK6 phosphorylates and thus activates p38 in response to extracellular signals such as TGFβ or other environmental stresses. The MKK6(glu) protein, which harbors glutamate mutations at amino acid residues serine 207 and threonine 211, is constitutively active and thus phosphorylates p38 irrespective of signal (Raingeaud et al., “MKK3- and MKK6-regulated gene expression is mediated by the p38 mitogen-activated protein kinase signal transduction pathway,” Mol. Cell. Biol. 16:1247-1255 (1996), which is hereby incorporated by reference in its entirety). Thus, if salinomycin is blocking the p38 signaling pathway, MKK6(glu) should overcome the effect of salinomycin. MKK6(glu) was first tested using the SBE4-TK-luc reporter plasmid. The luciferase reporter plasmid was introduced into human fibroblasts along with the MKK6(glu) plasmid or a control plasmid (pcDNA3-GFP). Cells were then treated with vehicle, TGFβ or TGFβ plus 250 nM salinomycin. After 24 hours, luciferase activity was measured (FIG. 6A). […] MKK6(glu) was further tested to assess whether it could attenuate the ability of salinomycin to inhibit p38 phosphorylation. Control or MKK6(glu) plasmids were introduced into human fibroblasts by electroporation and then cells were treated with TGFβ for 24 hours. Following treatment, cells were analyzed for flag-MKK6(glu) expression and phospho-p38 by Western blot (FIG. 6B). […] However, MKK6(glu) expression leads to a large induction of phospho-p38, regardless of salinomycin treatment. As a third test, control or MKK6(glu) plasmids were introduced into human fibroblasts by electroporation. After electroporation, cells were induced to form myofibroblasts by TGFβ treatment for 72 hours. Samples were analyzed for expression of flag-MKK6(glu), αSMA, calponin and β-tubulin by Western blot (FIG. 6C).

[3] = tested on: primary human lung fibroblasts; assay: TGFβ-induced myofibroblast formation, αSMA Western blot and cell images, primary human lung fibroblasts; assay type: cell-based; conditions: HCPT 50 nM or 500 nM, TGFβ, listed as SNC
Protocol: Human lung fibroblasts were treated with various concentrations of 10-hydroxycamptothecin (HCPT) (50 nM or 500 nM) and induced to form scar-forming myofibroblasts by treating with TGFβ.

[4] = tested on: TGFβ-induced myofibroblast formation in human fibroblasts; assay: Western blot of myofibroblast markers αSMA and calponin in TGFβ-treated human (TED orbital) fibroblasts; assay type: cell-based; conditions: 250 nM, 72 hours

`CC[C@@H](C(=O)[C@@H](C)[C@@H](O)[C@H](C)[C@@H]1O[C@@H]([C@@H](CC)C(=O)O)CC[C@@H]1C)[C@H]1O[C@]2(C=C[C@@H](O)[C@]3(CC[C@@](C)([C@H]4CC[C@](O)(CC)[C@H](C)O4)O3)O2)[C@H](C)C[C@@H]1C` [salinomycin] was tested, and the “inhibition of TGFβ-induced luciferase activity, initial screen” value [1] was “blocked TGFβ-induced luciferase activity; also recorded: particularly potent at inhibiting luciferase activity”, the “reduction of αSMA expression over TGFβ treatment alone” value ([2]; 50 nM, TGFβ 1 ng/ml, 72 hours) was 4 fold and the “reduction of αSMA expression over TGFβ treatment alone” value ([2]; 250 nM, TGFβ 1 ng/ml, 72 hours) was “approximately 16 fold”. The “expression of αSMA and calponin” value ([2]; 250 nM, 72 hours) was “lower than vehicle levels”, the “expression of αSMA and calponin” value ([2]; 250 nM, 72 hours, listed as Salinomycin) was “inhibited expression of αSMA and calponin” and the “TGFβ-dependent expression of alpha smooth muscle actin, calponin and collagen” value ([2]; 250 nM, primary human fibroblasts) was “blocked”. For the same compound, the “expression of αSMA and calponin, dose dependence” value ([2]; TGFβ 1 ng/ml, 72 hours) was “dose dependent manner”, the “expression of αSMA and calponin, dose dependence” value ([2]; TGFβ 1 ng/ml, 72 hours, listed as Salinomycin) was “dose-dependent decrease” and the “expression of myofibroblast markers αSMA and calponin” value ([2]; 100 and 200 nM, TGFβ 1 ng/ml, 72 hours, densitometry) was “below baseline levels”. The “reduction of phospho-p38 levels” value (phospho-p38; 5 hours) was “more than 2 fold”, the “reduction of phospho-p38 levels” value (phospho-p38; 24 hours) was 10 fold and the phospho-p38 levels (phospho-p38; 5 hours TGFβ treatment) was “completely blocked”. For the same compound, the “inhibition of phospho-p38” value (phospho-p38; 24 hours TGFβ treatment) was 80%, the “phosphorylation of p38” value (phospho-p38; control plasmid, TGFβ 24 hours) was “blocks phosphorylation of p38” and the “formation of myofibroblasts (cell images)” value [3] was “not in samples treated with HCPT or SNC; also recorded: not in samples with HCPT or salinomycin (SNC)”. For the same compound, the “TGFβ induced expression of αSMA and calponin” value ([4]; MKK6(glu) expressing cells) was “attenuated the ability of salinomycin to block” and the “TGFβ induced expression of αSMA and calponin” value ([4]; control GFP expressing cells) was “blocked their induction”.
